Among the data in US12018097 are ring closure, conversion values, retold here.

Like-named read-outs stand apart in the source and are kept apart here.

The conditions of this data set: the molecule shown is the open-chain precursor, thioether bond, resin, 4 steps.

Regarding “catch-resin-ArSO2O-CH2CO-dTrp-MeAla-Asp-Val-MeSer-Gly-Arg-MePhe-MeGly-Tyr-MePhe-Pro-Cys-Gly-NH2?”, the ring closure, conversion (42-membered ring) worked out at 50%.
Substance “catch-resin-ArSO2O-CH2CO-dTrp-Asp-MeSer-Gly-Asp-Pro-MeAla-Asp-Val-MeSer-Gly-Arg-MePhe-MeGly-Tyr-MePhe-Pro-Cys-Gly-NH2?” showed a ring closure, conversion (57-membered ring) of 50%.
In turn, “catch-resin-ArSO2O-CH2CO-dTrp-MeAla-Asp-Val-MeSer-Cys-Gly-NH2?” showed a ring closure, conversion (21-membered ring) of 66%.
In turn, “catch-resin-ArSO2O-CH2CO-dTrp-Asp-Pro-MeAla-Asp-Val-MeSer-Gly-Arg-MePhe-MeGly-Tyr-MePhe-Pro-Cys-Gly-NH2?” yielded a ring closure, conversion (48-membered ring) of 74%.
Where the note is “54-membered ring”, “catch-resin-ArSO2O-CH2CO-dTrp-MeSer-Gly-Asp-Pro-MeAla-Asp-Val-MeSer-Gly-Arg-MePhe-MeGly-Tyr-MePhe-Pro-Cys-Gly-NH2?” returned a ring closure, conversion of 29%.
The substance “catch-resin-ArSO2O-CH2CO-dTrp-MeAla-Asp-Val-MeSer-Gly-Arg-MePhe-MeGly-Tyr-Cys-Gly-NH2?” showed a ring closure, conversion (36-membered ring) of 72%.
In turn, “catch-resin-ArSO2O-CH2CO-dTrp-Tyr-Asp-MeSer-Gly-Asp-Pro-MeAla-Asp-Val-MeSer-Gly-Arg-MePhe-MeGly-Tyr-MePhe-Pro-Cys-Gly-NH2?” registered a ring closure, conversion (60-membered ring) of 57%.
Regarding “catch-resin-ArSO2O-CH2CO-dTrp-MeAla-Asp-Val-Cys-Gly-NH2?”, for the setting “18-membered ring”, the ring closure, conversion is 83%.
As for “catch-resin-ArSO2O-CH2CO-dTrp-Cys-Asp-Val-MeSer-Gly-Arg-MePhe-MeGly-Tyr-MePhe-Pro-Cys-Gly-NH2?”, the ring closure, conversion (42-membered ring) came to 28%.
Turning to “catch-resin-ArSO2O-CH2CO-dTrp-Pro-MeAla-Asp-Val-MeSer-Gly-Arg-MePhe-MeGly-Tyr-MePhe-Pro-Cys-Gly-NH2?”, the ring closure, conversion (45-membered ring) is 33%.
For the substance “catch-resin-ArSO2O-CH2CO-dTrp-MeAla-Tyr-Asp-MeSer-Gly-Asp-Pro-MeAla-Asp-Val-MeSer-Gly-Arg-MePhe-MeGly-Tyr-MePhe-Pro-Cys-Gly-NH2?”, the ring closure, conversion (63-membered ring) turned out to be 44%.
Consider “catch-resin-ArSO2O-CH2CO-dTrp-Gly-Asp-Pro-MeAla-Asp-Val-MeSer-Gly-Arg-MePhe-MeGly-Tyr-MePhe-Pro-Cys-Gly-NH2?”, for which the ring closure, conversion (51-membered ring) came to 51%.
As for “catch-resin-ArSO2O-CH2CO-dTrp-MeAla-Asp-Val-MeSer-Gly-Arg-MePhe-MeGly-Cys-Gly-NH2?”, the ring closure, conversion (33-membered ring) came out at 64%.
Where the note is “27-membered ring”, “catch-resin-ArSO2O-CH2CO-dTrp-MeAla-Asp-Val-MeSer-Gly-Arg-Cys-Gly-NH2?” gave a ring closure, conversion of 98%.
